{"source": "ChEMBL document CHEMBL4680060", "about": "“Polybasic peptide-levofloxacin conjugates potentiate fluoroquinolones and other classes of antibiotics against multidrug-resistant Gram-negative bacteria” (Medchemcomm, 2019)", "key": {"Pseudomonas aeruginosa [1]": {"test_system": "Pseudomonas aeruginosa", "experiment": "Additive antibacterial activity against MexAB-OprM, MexCD-OprJ, MexEF-OprN, MexJK and MexXY efflux pumps deficient Pseudomonas aeruginosa PAO750 in presence of levofloxacin by Checkerboard assay", "type": "functional, organism-based"}, "Staphylococcus aureus [2]": {"test_system": "Staphylococcus aureus", "experiment": "Antibacterial activity against Staphylococcus aureus ATCC 29213 assessed as inhibition of visible growth incubated for 18 hrs by CLSI protocol based microbroth dilution method", "type": "functional"}, "Acinetobacter baumannii [3]": {"test_system": "Acinetobacter baumannii", "experiment": "Synergistic antibacterial activity against multidrug resistant Acinetobacter baumannii AB027 assessed as fractional inhibitory concentration index in presence of moxifloxacin by Checkerboard assay", "type": "functional"}, "Pseudomonas aeruginosa [4]": {"test_system": "Pseudomonas aeruginosa", "experiment": "Potentiation of vancomycin-induced antibacterial activity against wild type Pseudomonas aeruginosa PAO1 measured after 18 hrs by CLSI protocol based microbroth dilution method", "type": "functional, organism-based"}, "Pseudomonas aeruginosa [5]": {"test_system": "Pseudomonas aeruginosa", "experiment": "Synergistic antibacterial activity against wild type Pseudomonas aeruginosa PAO1 in presence of ciprofloxacin by Checkerboard assay", "type": "functional, organism-based"}, "Pseudomonas aeruginosa [6]": {"test_system": "Pseudomonas aeruginosa", "experiment": "Potentiation of ciprofloxacin-induced antibacterial activity against wild type Pseudomonas aeruginosa PAO1 assessed as fold reduction in ciprofloxacin MIC measured after 18 hrs by CLSI protocol based microbroth dilution method relative to ciprofloxacin MIC", "type": "functional"}, "Acinetobacter baumannii [7]": {"test_system": "Acinetobacter baumannii", "experiment": "Synergistic antibacterial activity against Acinetobacter baumannii ATCC 17978 in presence of levofloxacin by Checkerboard assay", "type": "functional, organism-based"}, "Pseudomonas aeruginosa [8]": {"test_system": "Pseudomonas aeruginosa", "experiment": "Potentiation of ceftazidime-induced antibacterial activity against wild type Pseudomonas aeruginosa PAO1 measured after 18 hrs by CLSI protocol based microbroth dilution method", "type": "functional, organism-based"}, "Pseudomonas aeruginosa [9]": {"test_system": "Pseudomonas aeruginosa", "experiment": "Additive antibacterial activity against MexAB-OprM, MexCD-OprJ, MexEF-OprN, MexJK and MexXY efflux pumps deficient Pseudomonas aeruginosa PAO750 in presence of ciprofloxacin by Checkerboard assay", "type": "functional, organism-based"}, "Pseudomonas aeruginosa [10]": {"test_system": "Pseudomonas aeruginosa", "experiment": "Potentiation of rifampicin-induced antibacterial activity against wild type Pseudomonas aeruginosa PAO1 measured after 18 hrs by CLSI protocol based microbroth dilution method", "type": "functional, organism-based"}, "Pseudomonas aeruginosa [11]": {"test_system": "Pseudomonas aeruginosa", "experiment": "Potentiation of linezolid-induced antibacterial activity against wild type Pseudomonas aeruginosa PAO1 measured after 18 hrs by CLSI protocol based microbroth dilution method", "type": "functional, organism-based"}, "Acinetobacter baumannii [12]": {"test_system": "Acinetobacter baumannii", "experiment": "Synergistic antibacterial activity against multidrug resistant Acinetobacter baumannii AB027 assessed as fractional inhibitory concentration index in presence of ciprofloxacin by Checkerboard assay", "type": "functional"}, "Escherichia coli [13]": {"test_system": "Escherichia coli", "experiment": "Additive antibacterial activity against Escherichia coli 94474 in presence of ciprofloxacin by Checkerboard assay", "type": "functional, organism-based"}, "Streptococcus pneumoniae": {"test_system": "Streptococcus pneumoniae", "experiment": "Antibacterial activity against Streptococcus pneumoniae ATCC 49619 assessed as inhibition of visible growth incubated for 18 hrs by CLSI protocol based microbroth dilution method", "type": "functional"}, "Pseudomonas aeruginosa [14]": {"test_system": "Pseudomonas aeruginosa", "experiment": "Synergistic antibacterial activity against wild type Pseudomonas aeruginosa PAO1 assessed as fractional inhibitory concentration index in presence of ciprofloxacin by Checkerboard assay", "type": "functional"}, "Pseudomonas aeruginosa [15]": {"test_system": "Pseudomonas aeruginosa", "experiment": "Potentiation of chloramphenicol-induced antibacterial activity against wild type Pseudomonas aeruginosa PAO1 measured after 18 hrs by CLSI protocol based microbroth dilution method", "type": "functional, organism-based"}, "Escherichia coli [16]": {"test_system": "Escherichia coli", "experiment": "Additive antibacterial activity against Escherichia coli ATCC 25922 in presence of ciprofloxacin by Checkerboard assay", "type": "functional, organism-based"}, "Pseudomonas aeruginosa [17]": {"test_system": "Pseudomonas aeruginosa", "experiment": "Synergistic antibacterial activity against multidrug resistant Pseudomonas aeruginosa PA259 in presence of levofloxacin by Checkerboard assay", "type": "functional, organism-based"}, "Escherichia coli [18]": {"test_system": "Escherichia coli", "experiment": "Additive antibacterial activity against Escherichia coli 107115 in presence of ciprofloxacin by Checkerboard assay", "type": "functional, organism-based"}, "Escherichia coli [19]": {"test_system": "Escherichia coli", "experiment": "Synergistic antibacterial activity against Escherichia coli 94474 in presence of moxifloxacin by Checkerboard assay", "type": "functional, organism-based"}, "Pseudomonas aeruginosa [20]": {"test_system": "Pseudomonas aeruginosa", "experiment": "Potentiation of minocycline-induced antibacterial activity against wild type Pseudomonas aeruginosa PAO1 measured after 18 hrs by CLSI protocol based microbroth dilution method", "type": "functional, organism-based"}, "Escherichia coli [21]": {"test_system": "Escherichia coli", "experiment": "Synergistic antibacterial activity against Escherichia coli 94393 in presence of levofloxacin by Checkerboard assay", "type": "functional, organism-based"}, "Pseudomonas aeruginosa [22]": {"test_system": "Pseudomonas aeruginosa", "experiment": "Synergistic antibacterial activity against multidrug resistant Pseudomonas aeruginosa PA260 in presence of moxifloxacin by Checkerboard assay", "type": "functional, organism-based"}, "Pseudomonas aeruginosa [23]": {"test_system": "Pseudomonas aeruginosa", "experiment": "Potentiation of levofloxacin-induced antibacterial activity against wild type Pseudomonas aeruginosa PAO1 assessed as […] measured after 18 hrs by CLSI protocol based microbroth dilution method relative to levofloxacin MIC", "type": "functional"}, "Escherichia coli [24]": {"test_system": "Escherichia coli", "experiment": "Synergistic antibacterial activity against Escherichia coli ATCC 25922 in presence of moxifloxacin by Checkerboard assay", "type": "functional, organism-based"}, "Pseudomonas aeruginosa [25]": {"test_system": "Pseudomonas aeruginosa", "experiment": "Synergistic antibacterial activity against wild type Pseudomonas aeruginosa PAO1 in presence of levofloxacin by Checkerboard assay", "type": "functional, organism-based"}, "Pseudomonas aeruginosa [26]": {"test_system": "Pseudomonas aeruginosa", "experiment": "Synergistic antibacterial activity against multidrug resistant Pseudomonas aeruginosa PA260 in presence of levofloxacin by Checkerboard assay", "type": "functional, organism-based"}, "Escherichia coli [27]": {"test_system": "Escherichia coli", "experiment": "Additive antibacterial activity against Escherichia coli 94393 in presence of ciprofloxacin by Checkerboard assay", "type": "functional, organism-based"}, "Staphylococcus aureus [28]": {"test_system": "Staphylococcus aureus", "experiment": "Antibacterial activity against methicillin-resistant Staphylococcus aureus ATCC 33592 assessed as inhibition of visible growth incubated for 18 hrs by CLSI protocol based microbroth dilution method", "type": "functional"}, "Pseudomonas aeruginosa [29]": {"test_system": "Pseudomonas aeruginosa", "experiment": "Synergistic antibacterial activity against wild type Pseudomonas aeruginosa PAO1 assessed as fractional inhibitory concentration index in presence of levofloxacin by Checkerboard assay", "type": "functional"}, "Escherichia coli [30]": {"test_system": "Escherichia coli", "experiment": "Synergistic antibacterial activity against Escherichia coli 94393 in presence of moxifloxacin by Checkerboard assay", "type": "functional, organism-based"}, "Pseudomonas aeruginosa [31]": {"test_system": "Pseudomonas aeruginosa", "experiment": "Potentiation of fosfomycin-induced antibacterial activity against wild type Pseudomonas aeruginosa PAO1 measured after 18 hrs by CLSI protocol based microbroth dilution method", "type": "functional, organism-based"}, "Pseudomonas aeruginosa [32]": {"test_system": "Pseudomonas aeruginosa", "experiment": "Additive antibacterial activity against MexAB-OprM efflux pump deficient Pseudomonas aeruginosa PAO200 in presence of levofloxacin by Checkerboard assay", "type": "functional, organism-based"}, "Pseudomonas aeruginosa [33]": {"test_system": "Pseudomonas aeruginosa", "experiment": "Synergistic antibacterial activity against multidrug resistant Pseudomonas aeruginosa PA101885 in presence of ciprofloxacin by Checkerboard assay", "type": "functional, organism-based"}, "Pseudomonas aeruginosa [34]": {"test_system": "Pseudomonas aeruginosa", "experiment": "Synergistic antibacterial activity against multidrug resistant Pseudomonas aeruginosa PA100036 in presence of ciprofloxacin by Checkerboard assay", "type": "functional, organism-based"}, "Escherichia coli [35]": {"test_system": "Escherichia coli", "experiment": "Synergistic antibacterial activity against Escherichia coli ATCC 25922 in presence of levofloxacin by Checkerboard assay", "type": "functional, organism-based"}, "Pseudomonas aeruginosa [36]": {"test_system": "Pseudomonas aeruginosa", "experiment": "Synergistic antibacterial activity against multidrug resistant Pseudomonas aeruginosa PA100036 in presence of moxifloxacin by Checkerboard assay", "type": "functional, organism-based"}, "Pseudomonas aeruginosa [37]": {"test_system": "Pseudomonas aeruginosa", "experiment": "Synergistic antibacterial activity against multidrug resistant Pseudomonas aeruginosa PA262 in presence of moxifloxacin by Checkerboard assay", "type": "functional, organism-based"}, "Pseudomonas aeruginosa [38]": {"test_system": "Pseudomonas aeruginosa", "experiment": "Synergistic antibacterial activity against wild type Pseudomonas aeruginosa PAO1 in presence of moxifloxacin by Checkerboard assay", "type": "functional, organism-based"}}, "note": "The source made the active and inactive calls. No cut-off for these calls is given here.", "data": [{"molecule": "C[C@H]1COc2c(N3CCN(C)CC3)c(F)cc3c(=O)c(C(=O)NCCCCCCCCCCCC(=O)N[C@@H](CCN)C(=O)N[C@@H](CCN)C(N)=O)cn1c23", "values": [{"measurement": "Activity", "setting": "Pseudomonas aeruginosa [1]", "value": "Active"}, {"measurement": "MIC", "setting": "Staphylococcus aureus [2]", "value": 128, "unit": "µg/mL"}, {"measurement": "fractional inhibitory concentration index (FICI)", "setting": "Acinetobacter baumannii [3]", "value": 0.37}, {"measurement": "Activity", "setting": "Pseudomonas aeruginosa [4]", "value": "Active"}, {"measurement": "Activity", "setting": "Pseudomonas aeruginosa [5]", "value": "Active"}, {"measurement": "Ratio", "setting": "Pseudomonas aeruginosa [6]", "value": 4}, {"measurement": "Activity", "setting": "Acinetobacter baumannii [7]", "value": "inactive"}, {"measurement": "Activity", "setting": "Pseudomonas aeruginosa [8]", "value": "Active"}, {"measurement": "Activity", "setting": "Pseudomonas aeruginosa [9]", "value": "Active"}, {"measurement": "Activity", "setting": "Pseudomonas aeruginosa [10]", "value": "Active"}, {"measurement": "Activity", "setting": "Pseudomonas aeruginosa [11]", "value": "Active"}, {"measurement": "fractional inhibitory concentration index (FICI)", "setting": "Acinetobacter baumannii [12]", "value": 0.37}, {"measurement": "Activity", "setting": "Escherichia coli [13]", "value": "Active"}, {"measurement": "MIC", "setting": "Streptococcus pneumoniae", "value": "> 128", "unit": "µg/mL"}, {"measurement": "fractional inhibitory concentration index (FICI)", "setting": "Pseudomonas aeruginosa [14]", "value": 0.313}, {"measurement": "Activity", "setting": "Pseudomonas aeruginosa [15]", "value": "Active"}, {"measurement": "Activity", "setting": "Escherichia coli [16]", "value": "Active"}, {"measurement": "Activity", "setting": "Pseudomonas aeruginosa [17]", "value": "Active"}, {"measurement": "Activity", "setting": "Escherichia coli [18]", "value": "Active"}, {"measurement": "Activity", "setting": "Escherichia coli [19]", "value": "Active"}, {"measurement": "Activity", "setting": "Pseudomonas aeruginosa [20]", "value": "Active"}, {"measurement": "Activity", "setting": "Escherichia coli [21]", "value": "Active"}, {"measurement": "Activity", "setting": "Pseudomonas aeruginosa [22]", "value": "Active"}, {"measurement": "Ratio", "setting": "Pseudomonas aeruginosa [23]", "value": 4}, {"measurement": "Activity", "setting": "Escherichia coli [24]", "value": "Active"}, {"measurement": "Activity", "setting": "Pseudomonas aeruginosa [25]", "value": "Active"}, {"measurement": "Activity", "setting": "Pseudomonas aeruginosa [26]", "value": "Active"}, {"measurement": "Activity", "setting": "Escherichia coli [27]", "value": "Active"}, {"measurement": "MIC", "setting": "Staphylococcus aureus [28]", "value": "> 128", "unit": "µg/mL"}, {"measurement": "fractional inhibitory concentration index (FICI)", "setting": "Pseudomonas aeruginosa [29]", "value": 0.5}, {"measurement": "Activity", "setting": "Escherichia coli [30]", "value": "Active"}, {"measurement": "Activity", "setting": "Pseudomonas aeruginosa [31]", "value": "Active"}, {"measurement": "Activity", "setting": "Pseudomonas aeruginosa [32]", "value": "Active"}, {"measurement": "Activity", "setting": "Pseudomonas aeruginosa [33]", "value": "Active"}, {"measurement": "Activity", "setting": "Pseudomonas aeruginosa [34]", "value": "Active"}, {"measurement": "Activity", "setting": "Escherichia coli [35]", "value": "Active"}, {"measurement": "Activity", "setting": "Pseudomonas aeruginosa [36]", "value": "Active"}, {"measurement": "Activity", "setting": "Pseudomonas aeruginosa [37]", "value": "Active"}, {"measurement": "Activity", "setting": "Pseudomonas aeruginosa [38]", "value": "Active"}]}]}
